Experimental data from patent US6998404B2, “Treatment or prevention of acute renal failure” (priority 2001, dated 2006).
Where two headings read alike, the source gives them in different places.

Legend:
[1] = cyclosporin-A-induced renal failure with renal vasoconstriction; cited from earlier work
[2] = radiocontrast nephropathy, impaired renal excretory, endocrine and tubular function, cited from earlier work
[3] = rat, glycerol-induced ARF, IV, administered before the toxic insult; cited from earlier work
[4] = patients, aminophylline toxicity; cited from earlier work
[5] = treatment of oliguric prerenal acute renal failure, need for dialysis; format: in vivo, human; settings: patients with acute renal failure progressed to oliguria (less than 300 ml urine output per day)
Text: Adenosine receptor antagonists, especially aminophyllline, are used to treat or prevent acute renal failure. Adenosine antagonists are suited for prerenal acute renal failure only.

[6] = human trials, radio-contrast renal injury, IV, administered before the toxic insult; cited from earlier work

Cn1c(=O)c2[nH]cnc2n(C)c1=O [theophylline]
restoration of renal function [1]: restored renal function significantly

Cn1c(=O)c2[nH]cnc2n(C)c1=O [Theophyllin E]
protective role in preventing RCN [2]: effective in preventing RCN impaired renal excretory, endocrine and tubular function

Cn1c(=O)c2[nH]cnc2n(C)c1=O [aminophylline]
prevention of ARF [3]: dramatic in preventing ARF
serum theophylline level at which nausea and vomiting usually occur [4]: around 20 micrograms/ml
protective role in preventing RCN ([2]; listed as Aminophylline): does not appear to add a protective role in preventing RCN
patients in whom the need for dialysis is obviated [5]: over 50%
prevention of ARF [6]: dramatic in preventing ARF
